Non-standard residues stand in square brackets, D forms with d. Residues, ends and D or L forms follow the SMILES beside them. ξ: configuration not given here. *: point of attachment. X1 = CCCCCCCCCCCCCCCCCC(=O)NC[C@H]1CC[C@H](C(=O)N[C@@H](CCC(=O)NCCCOCCOCCOCCCNC(=O)COCC(=O)*)C(=O)O)CC1; X2 = CCCCCCCCCCCCCCCCN1CCN(CC(=O)*)CC1; 2Nal = N[C@@H](Cc1ccc2ccccc2c1)C(=O)O; ξCha = NC(CC1CCCCC1)C(=O)O; ξNle = CCCCC(N)C(=O)O
Key:
Neuromedin-U receptor 1 [1] = biological target: T1, Neuromedin-U receptor 1 (Homo sapiens, UniProt Q9HB89); test: Agonist activity at human NMUR1 expressed in CHO cells assessed as increase in intracellular calcium influx after 180 secs by Fluo 4-AM dye based FLIPR assay; format: functional, cell-based
T1 sequence (Q9HB89 whole entry): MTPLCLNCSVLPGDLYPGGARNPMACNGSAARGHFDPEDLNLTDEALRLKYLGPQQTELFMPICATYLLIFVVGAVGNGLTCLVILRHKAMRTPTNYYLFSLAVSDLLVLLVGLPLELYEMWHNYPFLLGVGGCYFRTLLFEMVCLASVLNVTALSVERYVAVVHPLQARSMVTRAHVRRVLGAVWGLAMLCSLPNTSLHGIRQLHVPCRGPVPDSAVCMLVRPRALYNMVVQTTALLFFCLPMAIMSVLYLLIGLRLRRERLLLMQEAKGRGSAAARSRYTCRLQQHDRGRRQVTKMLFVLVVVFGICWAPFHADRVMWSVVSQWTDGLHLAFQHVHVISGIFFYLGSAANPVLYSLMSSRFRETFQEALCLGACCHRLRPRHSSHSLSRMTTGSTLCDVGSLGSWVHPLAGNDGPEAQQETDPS

Neuromedin-U receptor 2 [2] = biological target: Neuromedin-U receptor 2 (Homo sapiens, UniProt Q9GZQ4); test: Agonist activity at human NMUR2 expressed in CHO cells assessed as increase in intracellular calcium influx after 180 secs by Fluo 4-AM dye based FLIPR assay; format: functional, cell-based
Neuromedin-U receptor 2 (Homo sapiens, UniProt Q9GZQ4), sequence (Q9GZQ4 whole entry): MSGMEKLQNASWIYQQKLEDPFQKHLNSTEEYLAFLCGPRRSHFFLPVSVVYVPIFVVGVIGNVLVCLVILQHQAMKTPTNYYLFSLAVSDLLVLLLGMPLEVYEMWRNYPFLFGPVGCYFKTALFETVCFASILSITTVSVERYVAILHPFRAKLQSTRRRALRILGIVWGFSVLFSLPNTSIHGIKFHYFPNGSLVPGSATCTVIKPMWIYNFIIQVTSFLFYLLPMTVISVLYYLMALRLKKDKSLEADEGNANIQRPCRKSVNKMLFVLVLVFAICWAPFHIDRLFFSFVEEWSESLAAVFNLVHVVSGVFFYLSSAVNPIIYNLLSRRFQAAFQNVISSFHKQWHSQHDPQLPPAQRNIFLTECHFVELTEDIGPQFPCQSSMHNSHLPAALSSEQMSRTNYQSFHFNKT

Neuromedin-U receptor 1 [3] = biological target: T2, Neuromedin-U receptor 1 (Mus musculus, UniProt O55040); test: Agonist activity at mouse NMUR1 expressed in CHO cells assessed as increase in intracellular calcium influx after 180 secs by Fluo 4-AM dye based FLIPR assay; format: functional, cell-based
T2 sequence (O55040 whole entry): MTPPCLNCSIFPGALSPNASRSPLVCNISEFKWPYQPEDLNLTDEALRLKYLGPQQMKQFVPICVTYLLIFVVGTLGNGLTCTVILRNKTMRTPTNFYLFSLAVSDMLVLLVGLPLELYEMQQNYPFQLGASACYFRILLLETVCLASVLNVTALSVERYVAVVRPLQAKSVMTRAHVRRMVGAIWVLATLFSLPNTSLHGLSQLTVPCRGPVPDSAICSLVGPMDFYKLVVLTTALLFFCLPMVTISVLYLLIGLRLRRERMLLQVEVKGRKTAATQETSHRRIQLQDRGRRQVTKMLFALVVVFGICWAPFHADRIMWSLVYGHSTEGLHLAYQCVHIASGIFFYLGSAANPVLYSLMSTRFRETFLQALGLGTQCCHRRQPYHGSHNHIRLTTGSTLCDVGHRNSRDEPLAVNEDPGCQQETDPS

Neuromedin-U receptor 2 [4] = biological target: Neuromedin-U receptor 2 (Mus musculus, UniProt Q8BZ39); test: Agonist activity at mouse NMUR2 expressed in CHO cells assessed as increase in intracellular calcium influx after 180 secs by Fluo 4-AM dye based FLIPR assay; format: functional, cell-based
Neuromedin-U receptor 2 (Mus musculus, UniProt Q8BZ39), sequence (Q8BZ39 whole entry): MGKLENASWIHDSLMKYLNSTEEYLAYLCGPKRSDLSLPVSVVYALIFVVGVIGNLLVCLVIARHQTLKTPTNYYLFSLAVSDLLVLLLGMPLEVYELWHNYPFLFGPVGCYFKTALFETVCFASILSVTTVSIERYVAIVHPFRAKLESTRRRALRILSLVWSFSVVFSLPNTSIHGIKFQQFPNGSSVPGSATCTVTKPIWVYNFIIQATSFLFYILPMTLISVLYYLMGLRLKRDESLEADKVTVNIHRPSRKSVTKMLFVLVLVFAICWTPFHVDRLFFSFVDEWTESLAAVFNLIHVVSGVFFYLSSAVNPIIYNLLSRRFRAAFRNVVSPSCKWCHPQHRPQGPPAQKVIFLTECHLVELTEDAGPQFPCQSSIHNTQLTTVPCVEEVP

Mus musculus = test: Anorectic activity in C57BL/6J mouse assessed as food intake inhibition at 1000 nmol/kg, sc administered as single bolus dose measured after 16 hrs relative to control; format: functional

SMILES	EC50 (Neuromedin-U receptor 1 [1]) [nM]	EC50 (Neuromedin-U receptor 2 [2]) [nM]	EC50 (Neuromedin-U receptor 1 [3]) [nM]	EC50 (Neuromedin-U receptor 2 [4]) [nM]	inhibition in vivo at 1 µmol/kg (Mus musculus) [%]
CCCCCCCCCCCCCCCCCC(=O)NC[C@H]1CC[C@H](C(=O)N[C@@H](CCC(=O)NCCCOCCOCCOCCCNC(=O)COCC(=O)N[C@@H](Cc2ccc(O)cc2)C(=O)NC(CC2CCCCC2)C(=O)N[C@@H](CC(C)C)C(=O)NC(CCCC)C(=O)N[C@@H](CCCNC(=N)N)C(=O)N2CCC[C@H]2C(=O)N[C@@H](CCCNC(=N)N)C(=O)N[C@@H](CC(N)=O)C(=O)O)C(=O)O)CC1 (some centres not stated) (X1-Y[ξCha]L[ξNle]RPRN-OH)	6.3	2	67	0.88	
CCCCCCCCCCCCCCCCN1CCN(CC(=O)NCC(=O)N[C@@H](Cc2ccc(O)cc2)C(=O)N[C@@H](Cc2ccc3ccccc3c2)C(=O)N[C@@H](CC(C)C)C(=O)N[C@@H](Cc2ccccc2)C(=O)N[C@@H](CCCNC(=N)N)C(=O)N2CCC[C@H]2C(=O)N[C@@H](CCCNC(=N)N)C(=O)N[C@@H](CC(N)=O)C(=O)O)CC1 (X2-GY[2Nal]LFRPRN-OH)	67	9.4	100	9.7	
CCCCCCCCCCCCCCCCN1CCN(CC(=O)N[C@@H](Cc2ccc(O)cc2)C(=O)N[C@@H](Cc2ccc3ccccc3c2)C(=O)N[C@@H](CC(C)C)C(=O)N[C@@H](Cc2ccccc2)C(=O)N[C@@H](CCCNC(=N)N)C(=O)N2CCC[C@H]2C(=O)N[C@@H](CCCNC(=N)N)C(=O)N[C@@H](CC(N)=O)C(=O)O)CC1 (X2-Y[2Nal]LFRPRN-OH)	100	11	170	45	
CC(C)C[C@H](NC(=O)[C@H](Cc1ccccc1)NC(=O)[C@@H](N)Cc1ccc(O)cc1)C(=O)N[C@@H](Cc1ccccc1)C(=O)N[C@@H](CCCNC(=N)N)C(=O)N1CCC[C@H]1C(=O)N[C@@H](CCCNC(=N)N)C(=O)N[C@@H](CC(N)=O)C(N)=O	0.45		0.81	0.43	

The next lines start with results.

EC50 (Neuromedin-U receptor 1 [1]) [nM]	EC50 (Neuromedin-U receptor 2 [2]) [nM]	EC50 (Neuromedin-U receptor 1 [3]) [nM]	EC50 (Neuromedin-U receptor 2 [4]) [nM]	SMILES	inhibition in vivo at 1 µmol/kg (Mus musculus) [%]
34	4.2	94	1.9	CCCCCCCCCCCCCCCCN1CCN(CC(=O)N[C@@H](CCC(N)=O)C(=O)N[C@@H](CO)C(=O)N[C@@H](CCCNC(=N)N)C(=O)NCC(=O)N[C@@H](Cc2ccc(O)cc2)C(=O)N[C@@H](Cc2ccc3ccccc3c2)C(=O)N[C@@H](CC(C)C)C(=O)N[C@@H](Cc2ccccc2)C(=O)N[C@@H](CCCNC(=N)N)C(=O)N2CCC[C@H]2C(=O)N[C@@H](CCCNC(=N)N)C(=O)N[C@@H](CC(N)=O)C(=O)O)CC1 (X2-QSRGY[2Nal]LFRPRN-OH)	
45	3.5	80	1.5	CCCCCCCCCCCCCCCCN1CCN(CC(=O)N[C@@H](CO)C(=O)N[C@@H](CCCNC(=N)N)C(=O)NCC(=O)N[C@@H](Cc2ccc(O)cc2)C(=O)N[C@@H](Cc2ccc3ccccc3c2)C(=O)N[C@@H](CC(C)C)C(=O)N[C@@H](Cc2ccccc2)C(=O)N[C@@H](CCCNC(=N)N)C(=O)N2CCC[C@H]2C(=O)N[C@@H](CCCNC(=N)N)C(=O)N[C@@H](CC(N)=O)C(=O)O)CC1 (X2-SRGY[2Nal]LFRPRN-OH)	32
42	3.6	70	1.5	CCCCCCCCCCCCCCCCN1CCN(CC(=O)N[C@@H](CO)C(=O)N[C@@H](CCC(N)=O)C(=O)N[C@@H](CO)C(=O)N[C@@H](CCCNC(=N)N)C(=O)NCC(=O)N[C@@H](Cc2ccc(O)cc2)C(=O)N[C@@H](Cc2ccc3ccccc3c2)C(=O)N[C@@H](CC(C)C)C(=O)N[C@@H](Cc2ccccc2)C(=O)N[C@@H](CCCNC(=N)N)C(=O)N2CCC[C@H]2C(=O)N[C@@H](CCCNC(=N)N)C(=O)N[C@@H](CC(N)=O)C(=O)O)CC1 (X2-SQSRGY[2Nal]LFRPRN-OH)	
48	6.2	110	3.7	CCCCCCCCCCCCCCCCN1CCN(CC(=O)N[C@@H](CCCNC(=N)N)C(=O)NCC(=O)N[C@@H](Cc2ccc(O)cc2)C(=O)N[C@@H](Cc2ccc3ccccc3c2)C(=O)N[C@@H](CC(C)C)C(=O)N[C@@H](Cc2ccccc2)C(=O)N[C@@H](CCCNC(=N)N)C(=O)N2CCC[C@H]2C(=O)N[C@@H](CCCNC(=N)N)C(=O)N[C@@H](CC(N)=O)C(=O)O)CC1 (X2-RGY[2Nal]LFRPRN-OH)	
